Results reported in article PMC8667897, “Natural inspired piperine-based ureas and amides as novel antitumor agents towards breast cancer” (Journal of Enzyme Inhibition and Medicinal Chemistry, 2021).

Target: T1, VEGFR-2 (Homo sapiens, UniProt P35968)
T1 construct: gene KDR
Assay: in vitro VEGFR-2 enzyme inhibition assay
Format: biochemical

T1 sequence (P35968 20-1356): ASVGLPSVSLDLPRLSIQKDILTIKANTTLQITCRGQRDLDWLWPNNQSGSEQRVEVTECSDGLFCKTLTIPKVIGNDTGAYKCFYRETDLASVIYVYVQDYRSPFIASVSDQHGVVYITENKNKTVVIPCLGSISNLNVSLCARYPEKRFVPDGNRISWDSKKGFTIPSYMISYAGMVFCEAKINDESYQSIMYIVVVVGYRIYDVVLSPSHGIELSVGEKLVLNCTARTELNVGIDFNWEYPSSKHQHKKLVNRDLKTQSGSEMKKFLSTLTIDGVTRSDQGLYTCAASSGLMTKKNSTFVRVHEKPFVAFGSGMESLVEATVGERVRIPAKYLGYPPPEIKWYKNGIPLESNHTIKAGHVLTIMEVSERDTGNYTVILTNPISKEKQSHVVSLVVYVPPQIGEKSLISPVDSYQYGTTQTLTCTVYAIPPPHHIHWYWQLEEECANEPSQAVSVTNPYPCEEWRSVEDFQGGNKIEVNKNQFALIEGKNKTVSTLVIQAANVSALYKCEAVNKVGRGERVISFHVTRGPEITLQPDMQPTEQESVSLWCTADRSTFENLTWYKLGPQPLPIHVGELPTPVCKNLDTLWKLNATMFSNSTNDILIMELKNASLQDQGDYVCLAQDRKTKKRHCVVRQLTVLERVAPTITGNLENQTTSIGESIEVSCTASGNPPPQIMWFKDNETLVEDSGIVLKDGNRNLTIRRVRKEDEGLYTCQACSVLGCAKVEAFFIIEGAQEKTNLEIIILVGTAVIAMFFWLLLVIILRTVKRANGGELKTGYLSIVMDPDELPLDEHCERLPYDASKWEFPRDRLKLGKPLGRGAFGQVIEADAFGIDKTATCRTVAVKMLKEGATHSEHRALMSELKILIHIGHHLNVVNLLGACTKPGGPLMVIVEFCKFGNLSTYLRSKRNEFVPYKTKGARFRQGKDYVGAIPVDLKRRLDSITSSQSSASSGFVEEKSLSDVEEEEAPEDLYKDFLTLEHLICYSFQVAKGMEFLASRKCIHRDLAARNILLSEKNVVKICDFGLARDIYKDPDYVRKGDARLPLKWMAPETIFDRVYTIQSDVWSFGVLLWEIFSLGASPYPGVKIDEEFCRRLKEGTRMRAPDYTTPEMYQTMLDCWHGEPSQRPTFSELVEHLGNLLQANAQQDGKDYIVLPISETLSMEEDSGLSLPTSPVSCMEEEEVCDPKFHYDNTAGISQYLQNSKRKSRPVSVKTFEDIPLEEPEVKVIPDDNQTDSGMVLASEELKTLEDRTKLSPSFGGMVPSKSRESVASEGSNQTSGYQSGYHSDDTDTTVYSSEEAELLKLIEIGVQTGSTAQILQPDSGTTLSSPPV

IC50: 231 ± 5 nM
SMILES: O=C(N/C=C/C=C/c1ccc2c(c1)OCO2)Nc1ccc(Cl)cc1 [8q, 1-((1E,3E)-4-(Benzo[d]1,3dioxol-5-yl)buta-1,3-dien-1-yl)-3–(4-chlorophenyl)urea]
